Laboratory results as given in EP4663631A1, “POLYMORPH AS PROTEIN KINASE MEK INHIBITOR, AND PREPARATION METHOD THEREFOR AND USE THEREOF” (Shanghai Kechow Pharma, Inc., priority 2023, dated 2024).
Where two headings read alike, the source gives them in different places.

System: SK-MEL-2 cells
Experiment: MTT proliferation inhibition, NRAS mutant melanoma cell line
Conditions: Homo sapiens, SK-MEL-2, 72 h
Procedure: All cells were provided by Beijing Cancer Hospital. Human melanoma cell line SK-MEL-2 (NRAS Q61R) was cultured with MEM supplemented with 10%FBS and penicillin streptomycin in an incubator at 37 °C and 5% carbon dioxide.
When the confluence of the cultured cells reached more than 80%, the adherent cells were digested with trypsin and the cell precipitate was collected by centrifugation, counted, and 90 µL of the cell suspension was seeded in a 96-well plate at the appropriate density. […] Each concentration was set up three multiple Wells, a total of 9 concentration points. The Wells added with the same volume of 5% DMSO were used as control, and the final concentration of DMSO was 0.5%. After 3 days of drug treatment, the cell viability was detected by MTT, and 10 µL MTT was added to each well and incubated in the incubator for another 4 hours. After the supernatant was discarded and 150 µL DMSO was added to dissolve the crystal, and the absorbance at 490 nm was detected by microplate reader. The above experiments were repeated three times. The dose-effect curve was made and IC50 was calculated by GraphPad Prism 8 software.

IC50 (read-out: IC5o(nM) 1st): 74.8 nM
IC50 (read-out: IC5o(nM) 2nd): 68.3 nM
IC50 (read-out: IC5o(nM) 3rd): 222 nM
IC50 (read-out: Mean value (nM)): 122 nM
SMILES: Cn1cnc2c(F)c(Nc3ccc(Br)cc3F)c(C(=O)NOCCO)cc21 [MEK162]
